Results reported in patent US5430062A, “Stilbene derivatives as anticancer agents” (priority 1993, dated 1995).
Values joined by “and” are separate entries in the source; they are usually repeats but may differ in a detail not shown here. Equal values may be shown once. “Also recorded” adds a separate entry of the source. Where a name gives a salt, the structure may show the parent alone. Read-outs that look alike come from different tables or passages of the source.

Columns and labels:
tubulin [1] = assay: Inhibition of tubulin polymerization (turbidimetry); type: biochemical, bovine; conditions: for increase in IC50 / loss of activity in tubulin polymerization: relative to the parent 5a (8a, 5b) or 8a (12a)
[2] = system: DMS 273 small cell lung cancer; assay: Cytotoxicity, DMS 273; conditions: read-out: cytotoxicity GI50, DMS 273; 50% growth inhibition; average of two determinations; 8640 min
tubulin [3] = assay: Inhibition of [3H]colchicine binding to tubulin (DEAE-filter); parameters: species or system bovine; conditions: for Colchicine binding % inhibition: 1 μM tubulin, 5 μM [3H]colchicine, 5 μM inhibitor, 10 min, 37° C.
[4] = system: five cancer cell cultures; assay: MTT cytotoxicity assay, five cancer cell cultures taken together; conditions: for cytotoxicity (in words): five cancer cell lines; for less cytotoxic than 1a and 5a: relative to 1a and 5a
MCF-7 breast carcinoma = assay: MTT cytotoxicity assay, MCF-7; conditions: Homo sapiens, MCF7, […]
MLM melanoma = assay: MTT cytotoxicity assay, MLM; conditions: […]
SKMEL-5 melanoma = assay: MTT cytotoxicity assay, SKMEL-5; conditions: Homo sapiens, SK-MEL-5, […], read-out: Cytotoxicity ED50, SKMEL-5
A-549 lung carcinoma = assay: MTT cytotoxicity assay, A-549; conditions: Homo sapiens, A549, […]
[5] = system: HT-29 colon adenocarcinoma; assay: MTT cytotoxicity assay, HT-29; conditions: Homo sapiens, HT-29, […]
[6] = first series (Table VIII and text), 37° C., 20 min, read-out: Tubulin polymerization IC50 (±S.D.)
[7] = read-out: cytotoxicity ED50, five cancer cell lines
[8] = read-out: cytotoxicity ED50, in at least three cell lines
[9] = read-out: Cytotoxicity ED50, MCF-7
[10] = read-out: Cytotoxicity ED50, MLM
[11] = read-out: Cytotoxicity ED50, A-549
[12] = read-out: Cytotoxicity ED50, HT-29
[13] = read-out: Cytotoxicity ED50, MCF-7, MCF-7, MTT, six days
[14] = read-out: Cytotoxicity ED50, MLM, MLM, MTT, six days
[15] = read-out: Cytotoxicity ED50, A-549, A-549, MTT, six days
[16] = second series (Tables V-VII, IX), read-out: Inhibition of Tubulin Polymerization IC50 (±S.D.)

Row | Compound | Colchicine binding % inhibition (tubulin [3]) | inhibition of tubulin polymerization (in words) (tubulin [1]) | IC50 (tubulin [1]; [6]) | cytotoxicity (in words) [4] | IC50 (MCF-7 breast carcinoma; [9]) | IC50 (MLM melanoma; [10]) | IC50 (SKMEL-5 melanoma) | IC50 (A-549 lung carcinoma; [11]) | IC50 [5, 12] | other results
1 | COc1cc(CNc2ccc(C(C)C)cc2)cc(OC)c1OC [110f, 4-Isopropyl-N-(3,4,5-trimethoxybenzyl)aniline Hydrochloride] |  |  |  |  |  |  |  |  |  | IC50 (tubulin [1]; Table X, different glutamate preparation (1M monosodium glutamate and GTP), read-out: inhibn of tubulin polymn IC50 (±SD)): > 40000 nM; GI50 [2]: 12900 nM
2 | COc1ccc(NCc2cc(OC)c(OC)c(OC)c2)cc1 [compound 12a, 3,4,5-Trimethoxy-N-(4-methoxyphenyl)benzylamine] | 34% | only modest inhibitory effects on tubulin polymerization | 23000 nM | only an order of magnitude less cytotoxic than 8a | 2.4 nM | 1.6 nM | 0.7 nM | 1.9 nM | 1 nM | increase in IC50 / loss of activity in tubulin polymerization (tubulin [1]): 3 -fold; IC50 [4, 7]: ~1 nM; IC50 [4, 8]: < 1000 nM
3 | COc1cc(/C=C\c2ccc(OC(C)=O)cc2)cc(OC)c1OC [compound 5p, (Z)-1-(4-Acetoxyphenyl)-2-(3,4,5-trimethoxyphenyl)ethene] | 24% |  | 29000 nM | decreased the activity drastically | 300 nM | 6300 nM | 600 nM | 1700 nM | 6000 nM | 
4 | COc1ccc(/C=C\c2cc(OC)c(OC)c(OC)c2)c(Cl)c1 [compound 5e] | 73% | strong inhibitors of tubulin polymerization; also recorded: active as inhibitors of tubulin polymerization; also recorded: small reductions | 3500 nM | decreased the cytotoxicity |  |  | 17 nM |  |  | less cytotoxic than 1a and 5a [4]: about 1000 -fold; IC50 (MCF-7 breast carcinoma; [13]): 46 nM; IC50 (MLM melanoma; [14]): 140 nM; IC50 (A-549 lung carcinoma; [15]): 51 nM
5 | COc1ccc(NCc2cc(OC)cc(OC)c2)cc1 [compound 12d] | 39% |  | 29000 nM |  | 6080 nM | > 25000 nM | 2410 nM | 5710 nM | 17800 nM | 
6 | COc1cc(CCc2ccc(N(C)C)cc2)cc(OC)c1OC [compound 8n, 1-[4-(Dimethylamino)phenyl]-2-(3,4,5-trimethoxyphenyl)ethane] | 31% | only modest inhibitory effects on tubulin polymerization | 29000 nM |  | 64 nM | 120 nM | 59 nM | 83 nM | 77 nM | IC50 [4, 8]: < 1000 nM
7 | COc1ccc(CCc2cc(OC)c(OC)c(OC)c2)cc1O [compound 1c, reference compound] | 79% |  | 3300 nM |  | 330 nM | 10 nM | 2.1 nM | 10 nM | 8.1 nM | inhibition of colchicine binding (in words) (tubulin [3]): inhibit the binding of radiolabeled colchicine to tubulin
8 | COc1cc(/C=C\c2ccc(Br)cc2)cc(OC)c1OC [5h, (Z)-1-(4-Bromophenyl)-2-(3,4,5-trimethoxyphenyl)ethene] | 73% | strong inhibitors of tubulin polymerization; also recorded: active as inhibitors of tubulin polymerization; also recorded: small reductions | 3100 nM |  | 16 nM | 14 nM | 6.7 nM | 11 nM | 8.2 nM | IC50 ([4]; read-out: cytotoxicity ED50): < 100 nM; less cytotoxic than 1a and 5a [4]: about 1000 -fold
9 | COc1cc(/C=C\c2ccc(N(C)C)cc2)cc(OC)c1OC [compound 5n, (Z)-1-[4-(N,N-Dimethylamino)phenyl)-2-(3,4,5-trimethoxyphenyl)ethene] | 83% | strong inhibitors of tubulin polymerization; also recorded: small reductions | 3400 nM and 3500 nM |  | 5.8 nM | 9.4 nM | 0.15 nM | 4.1 nM | 8.1 nM | IC50 [4, 7]: < 100 nM; IC50 [4, 8]: < 1000 nM
10 | CCN(CC)CCOC(=O)/C(=C/c1cccc(OC)c1)c1cc(OC)c(OC)c(OC)c1 [24f, (E)-(2-N,N-Diethylamino)ethyl-3-(3-methoxyphenyl)-2-(3,4,5-trimethoxyphenyl)-prop-2-enoate] |  |  |  | did not show considerable cytotoxicity | 10400 nM | > 25000 nM | 6700 nM | 7700 nM | > 25000 nM | IC50 (tubulin [1]; [16]): > 40000 nM
11 | COc1cc(/C=C\c2ccccc2)cc(OC)c1OC [compound 5f, (Z)-1-Phenyl-2-(3,4,5-trimethoxyphenyl)ethene] | 14% |  | 36000 nM | decreased the activity drastically | 250 nM | > 25000 nM | 120 nM | 170 nM | 84 nM | 
12 | COc1ccc(CCc2cc(OC)c(OC)c(OC)c2)cc1 [compound 8a, 1-(4-Methoxyphenyl)-2-(3,4,5-trimethoxyphenyl)ethane] | 65% | strong inhibitors of tubulin polymerization | 7900 nM | more cytotoxic than dihydrocombretastatin A-4 (1c) in all five cancer cell lines | 0.16 nM | 0.18 nM | 0.14 nM | 0.18 nM | 0.25 nM | increase in IC50 / loss of activity in tubulin polymerization (tubulin [1]): ~4 -fold; IC50 [4, 7]: ~0.2 nM; IC50 [4, 8]: < 1000 nM
13 | COC(=O)C(Cc1cc(OC)c(OC)c(OC)c1)c1ccc(OC)cc1 (stereo not shown) [compound 17j, Methyl 2-(4-methoxyphenyl)-3-(3,4,5-trimethoxyphenyl)n-proponate] |  |  |  |  | > 25000 nM | > 25000 nM | > 25000 nM | > 25000 nM | > 25000 nM | IC50 (tubulin [1]; [16]): > 40000 nM; IC50 [4, 7]: > 25000 nM
14 | COc1ccc(C(C#N)Cc2cc(OC)c(OC)c(OC)c2)cc1 (stereo not shown) [compound 17i, 2-(4-Methoxyphenyl)-3-(3,4,5-trimethoxyphenyl)propanonitrile] |  |  |  |  | 14300 nM | 21100 nM | 6400 nM | 11500 nM | 9400 nM | IC50 (tubulin [1]; [16]): > 40000 nM; less cytotoxic than 8a / cytotoxicity reduced ([4]; relative to 8a): 10,000 -fold
15 | CCN(CC)CCOC(=O)/C(=C/c1ccc(OC)cc1)c1cc(OC)c(OC)c(OC)c1 [24e, (E)-(2-N,N-Diethylamino)ethyl-3-(4-methoxyphenyl)-2-(3,4,5-trimethoxyphenyl)-prop-2-enoate] |  |  |  | did not show considerable cytotoxicity | 2100 nM | > 25000 nM | 2700 nM | 1800 nM | 2800 nM | IC50 (tubulin [1]; [16]): > 40000 nM
16 | COc1cccc(/C=C\c2cc(OC)c(OC)c(OC)c2)c1 [compound 5b, (Z)-1-(3-Methoxyphenyl)-2-(3,4,5-trimethoxy-phenyl)ethene] | 50% | strong inhibitors of tubulin polymerization; also recorded: active as inhibitors of tubulin polymerization | 8800 nM | decreased the activity drastically |  |  | 60 nM |  |  | increase in IC50 / loss of activity in tubulin polymerization (tubulin [1]): 4 -fold; IC50 ([4]; read-out: cytotoxicity ED50): < 1000 nM; IC50 (MCF-7 breast carcinoma; [13]): 140 nM; IC50 (MLM melanoma; [14]): 1400 nM; IC50 (A-549 lung carcinoma; [15]): 130 nM; IC50 ([5]; read-out: Cytotoxicity ED50, HT-29, HT-29, MTT, six days): 90 nM
17 | COc1cc([C@@H]2c3cc4c(cc3[C@H](O)[C@H]3COC(=O)[C@H]23)OCO4)cc(OC)c1OC [Podophyllotoxin, reference compound] | 88% |  | […] |  |  |  |  |  |  | IC50 (tubulin [1]; Table X footnote b, different glutamate preparation, read-out: tubulin polymerization IC50, standard agents): […]
18 | COc1cc(/C=C\c2ccc(Cl)cc2)cc(OC)c1OC [5g, (Z)-1-(4-Chlorophenyl)-2-(3,4,5-trimethoxyphenyl)ethene] | 55% | strong inhibitors of tubulin polymerization; also recorded: active as inhibitors of tubulin polymerization; also recorded: small reductions | 4800 nM |  | 180 nM | 170 nM | 10 nM | 80 nM | 50 nM | IC50 ([4]; read-out: cytotoxicity ED50): < 100 nM; less cytotoxic than 1a and 5a [4]: about 1000 -fold
19 | CCNC(=O)/C(=C/c1ccc(OC)cc1)c1cc(OC)c(OC)c(OC)c1 [compound 24d, (E)-N-Ethyl-[3-(4-methoxyphenyl)-2-(3,4,5-trimethoxyphenyl)]-prop-2-enoamide] |  |  |  | did not show considerable cytotoxicity | 3700 nM | > 25000 nM | 7050 nM | 3400 nM | 1800 nM | IC50 (tubulin [1]; [16]): > 40000 nM
